In ChEMBL document CHEMBL4840338, “Cudraflavone C from Artocarpus hirsutus as a Promising Inhibitor of Pathogenic, Multidrug-Resistant S. aureus, Persisters, and Biofilms: A New Insight into a Rational Explanation of Traditional Wisdom” (J Nat Prod, 2021):
In brackets after ≈: the same amount, converted by molar mass.

How the values were obtained:
Enterococcus [1] = assay: Antibacterial activity against vancomycin-susceptible Enterococcus NR 31886 assessed as bacterial growth inhibition incubated for 16 to 18 hrs by broth microdilution method; assay type: functional; settings: time 16-18 hrs
Staphylococcus aureus [2] = assay: Antibiofilm activity against Staphylococcus aureus ATCC 29213 assessed as reduction in preformed bacterial biofilm at 10XMIC incubated for 24 hrs by crystal violet staining based microtiter plate reader assay; assay type: functional
Staphylococcus aureus [3] = assay: Antibacterial activity against Staphylococcus aureus ATCC 29213 assessed as fractional inhibitory concentration in presence of rifampicin incubated for 24 hrs by checkerboard assay; assay type: functional
[4] = Selectivity index, ratio of CC50 for cytotoxicity against African green monkey Vero cells to MIC for antibacterial activity against Staphylococcus aureus ATCC 29213; assay type: toxicity, cell-based; settings: read-out: Selectivity Index
Enterococcus [5] = assay: Antibacterial activity against vancomycin-resistant Enterococcus NR 31912 assessed as bacterial growth inhibition incubated for 16 to 18 hrs by broth microdilution method; assay type: functional; settings: time 16-18 hrs
Staphylococcus aureus [6] = assay: Bactericidal activity against Staphylococcus aureus ATCC 29213 assessed as reduction in bacterial load at 10X MIC preincubated for 6 hrs followed by subculturing on TSA plate for 18 to 20 hrs by time-kill assay; assay type: functional; set-up: scale not given: the % may be the effect or the level left; settings: time 24-26 hrs
Enterococcus [7] = assay: Antibacterial activity against vancomycin-susceptible Enterococcus NR 31884 assessed as bacterial growth inhibition incubated for 16 to 18 hrs by broth microdilution method; assay type: functional; settings: time 16-18 hrs
Staphylococcus aureus [8] = assay: Antibacterial activity against Staphylococcus aureus ATCC 29213 assessed as time for increase by 1 log10CFU at 10XMIC incubated for 1 hr followed by drug wash-out and measured every single 1 hr; assay type: functional
Staphylococcus aureus [9] = assay: Bactericidal activity against Staphylococcus aureus ATCC 29213 assessed as reduction in bacterial load at 10X MIC preincubated for 1 hr followed by subculturing on TSA plate for 18 to 20 hrs by time-kill assay; assay type: functional; settings: time 19-21 hrs
Enterococcus [10] = assay: Antibacterial activity against vancomycin-resistant Enterococcus NR 31903 assessed as bacterial growth inhibition incubated for 16 to 18 hrs by broth microdilution method; assay type: functional; settings: time 16-18 hrs
Staphylococcus aureus [11] = assay: Synergistic antibacterial activity against Staphylococcus aureus ATCC 29213 assessed as fractional inhibitory concentration in presence of gentamycin incubated for 24 hrs by checkerboard assay; assay type: functional
Staphylococcus aureus [12] = assay: Antibacterial activity against methicillin-resistant Staphylococcus aureus NRS 10193 assessed as bacterial growth inhibition incubated for 16 to 18 hrs by broth microdilution method; assay type: functional; settings: time 16-18 hrs
Staphylococcus aureus [13] = assay: Antibacterial activity against Staphylococcus aureus ATCC 29213 infected in mouse J774.A1 assessed as reduction in intracellular bacterial burden at 5XMIC incubated for 24 hrs followed by replating on TSA plate for 24 hrs by intracellular killing assay; assay type: functional; settings: time 48 hrs
Escherichia coli = assay: Antibacterial activity against Escherichia coli ATCC 25922 assessed as bacterial growth inhibition in presence of outermembrane permeabilizer, PMBN incubated for 16 to 18 hrs by broth microdilution method; assay type: functional; settings: time 16-18 hrs
Staphylococcus aureus [14] = assay: Antibacterial activity against vancomycin-resistant Staphylococcus aureus VRS12 assessed as bacterial growth inhibition incubated for 16 to 18 hrs by broth microdilution method; assay type: functional; settings: time 16-18 hrs
Klebsiella pneumoniae = assay: Antibacterial activity against Klebsiella pneumoniae BAA-1705 assessed as bacterial growth inhibition incubated for 16 to 18 hrs by broth microdilution method; assay type: functional; settings: time 16-18 hrs
Staphylococcus aureus [15] = assay: Antibacterial activity against Staphylococcus aureus ATCC 29213 assessed as time for post-antibiotic effect at 1XMIC incubated for 1 hr followed by drug wash-out and measured every single 1 hr; assay type: functional
Staphylococcus aureus [16] = assay: Antibacterial activity against methicillin-resistant Staphylococcus aureus NRS 10198 assessed as bacterial growth inhibition incubated for 16 to 18 hrs by broth microdilution method; assay type: functional; settings: time 16-18 hrs
Staphylococcus aureus [17] = assay: Antibacterial activity against Staphylococcus aureus ATCC 29213 assessed as fractional inhibitory concentration in presence of vancomycin incubated for 24 hrs by checkerboard assay; assay type: functional
Staphylococcus aureus [18] = assay: Synergistic antibacterial activity against multidrug-resistant methicillin resistant Staphylococcus aureus NRS 10119 assessed as reduction in bacterial load at 1X MIC preincubated for 24 hrs in presence of gentamycin followed by subculturing on TSA plate for 18 to 20 hrs by time-kill assay; assay type: functional; settings: time 42-44 hrs
Staphylococcus aureus [19] = assay: Antibacterial activity against Staphylococcus aureus ATCC 29213 assessed as fractional inhibitory concentration in presence of daptomycin incubated for 24 hrs by checkerboard assay; assay type: functional

With `CC(C)=CCc1c(O)cc2oc(-c3ccc(O)cc3O)c(CC=C(C)C)c(=O)c2c1O` [CUDRAFLAVONE C] the MIC (Enterococcus [1]) was 4 µg/mL (≈ 9.47 µM), the “inhibition (INH)” value (Staphylococcus aureus [2]) was 30.4% and the FIC (Staphylococcus aureus [3]) was 1.5. It also gave a selectivity ratio [4] of 25, an MIC (Enterococcus [5]) of 4 µg/mL (≈ 9.47 µM) and an Activity (Staphylococcus aureus [6]) of 100%. It also gave an MIC (Enterococcus [7]) of 4 µg/mL (≈ 9.47 µM), a Time (Staphylococcus aureus [8]) of over 24 h and an Activity (Staphylococcus aureus [9]) of 5 log10CFU/ml. The MIC (Enterococcus [10]) was 4 µg/mL (≈ 9.47 µM), the FIC (Staphylococcus aureus [11]) was 0.135 and the MIC (Staphylococcus aureus [12]) was 4 µg/mL (≈ 9.47 µM). For the same molecule, the Activity (Staphylococcus aureus [13]) was 2 log10CFU/ml, the MIC (Escherichia coli) was 1 µg/mL and the MIC (Staphylococcus aureus [14]) was 4 µg/mL (≈ 9.47 µM). It also gave an MIC (Klebsiella pneumoniae) of over 64 µg/mL, a Time (Staphylococcus aureus [15]) of 2 h and an MIC (Staphylococcus aureus [16]) of 4 µg/mL (≈ 9.47 µM). For the same molecule, the FIC (Staphylococcus aureus [17]) was 1.5, the Activity (Staphylococcus aureus [18]) was 6 log10CFU/ml and the FIC (Staphylococcus aureus [19]) was 1.5.
